This note sets out measurements from US9328372B2, “Coenzyme-linked glucose dehydrogenase and polynucleotide encoding the same” (Ikeda Food Research Co., Ltd., priority 2005, dated 2016).

Structures are written as SMILES. Some results are limits rather than exact numbers.

The assay concerns coenzyme-linked glucose dehydrogenase. Briefly: Inhibitor test with 1,10-phenanthroline. Type of assay: biochemical, Aspergillus terreus. On the procedure:
1.0 ml of 0.1 M potassium phosphate buffer (pH 7.0), 1.0 ml of 1.0 M D-glucose, 0.1 ml of 3 mM 2,6-dichlorophenolindophenol (hereinafter, referred to as DCIP), 0.2 ml of 3 mM 1-methoxy-5-methylphenazium methylsulfate, and 0.65 ml of water are placed in a 3 ml quartz cell (with an optical path length of 1 cm), and then the cell is placed in a spectrophotometer equipped with a thermostat cell holder. After the cell is incubated at 37° C. for five minutes, 0.05 ml of an enzyme liquid is added thereto, followed by measuring absorbance change (αABS/min) of DCIP at 600 nm. The mol-absorption coefficient of DCIP at pH 7.0 is defined to be 16.3×10^3 cm^−1M^−1. Since one unit of the enzyme activity is substantially equivalent to the enzyme activity that reduces 1 μmol of DCIP per minute, the enzyme activity is determined by absorbance change in accordance with the following formula. To the reaction system in the activity measurement method-1, 1,10-phenanthroline dissolved in methanol so that each final concentration was 1 mM, 5 mM, 10 mM, 25 mM, or 50 mM, was added, followed by measuring the activity of the purified enzymes 1 to 6 by the activity measurement method-1. […] As a control, methanol was added to the reaction system in the activity measurement method-1 at the final concentration of 10% (v/v), and then the activity was measured by the activity measurement method-1. […]

On to `c1cnc2c(c1)ccc1cccnc12` [1,10-phenanthroline], for which the inhibition ratio (1,10-phenanthroline at final concentration of 1 mM or more, purified enzymes 1 to 6, 10% (v/v) methanol) is reported as no less than 60%. The “inhibition of the activity by 1,10-phenanthroline” value (GLD according to the invention, general characteristics, concentration not given) is on record as “At least 60%”.
